From patent US20140051679A1, “KINASE INHIBITORS AND METHOD OF TREATING CANCER WITH SAME” (UNIVERISTY HEALTH NETWORKS, priority 2011, published 2014)

Key:
human PLK4 = target: T1, human PLK4 (Homo sapiens, UniProt O00444); experiment: PLK4 inhibition assay (indirect ELISA); format: biochemical; settings: GST-PLK4 4 nM, 15 μM ATP; read-out: IC50 Ranges PLK4
T1 construct: amino terminal GST fusion of residues 1-391 of human PLK4; made in house; host or cells: E. coli
T1 sequence (O00444 1-391): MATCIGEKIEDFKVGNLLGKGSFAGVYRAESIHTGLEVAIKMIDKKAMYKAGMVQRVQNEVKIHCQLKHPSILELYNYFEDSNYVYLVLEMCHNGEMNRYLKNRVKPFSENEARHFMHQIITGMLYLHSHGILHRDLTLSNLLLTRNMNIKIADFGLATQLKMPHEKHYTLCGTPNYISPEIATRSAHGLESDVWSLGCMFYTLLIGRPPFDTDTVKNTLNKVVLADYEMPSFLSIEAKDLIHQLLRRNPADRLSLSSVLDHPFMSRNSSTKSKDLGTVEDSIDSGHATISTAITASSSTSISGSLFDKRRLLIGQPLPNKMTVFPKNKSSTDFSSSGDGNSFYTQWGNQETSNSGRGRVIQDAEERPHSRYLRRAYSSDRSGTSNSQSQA
In short: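 Dephosphorylated GST-tagged human PLK4 (residues 1-391, E. coli), 4 nM, preincubated 15 min with compound, then reacted 30 min with 15 μM ATP on MBP-coated plates (50 mM HEPES pH 7.5, 10 mM MgCl2, 0.01% Brij 35). Phospho-MBP detected by antibody ELISA at 450 nm. Tested at 10 μM or 10-point titrations; IC50 from 4-parameter logistic fit.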

human TTK = target: T2, human TTK (Homo sapiens, UniProt P33981); experiment: TTK inhibition assay (indirect ELISA); format: biochemical; settings: GST-TTK 0.68 nM, 16 μM ATP; read-out: IC50 Ranges TTK
T2 construct: amino terminal GST fusion of full length human TTK; purchased Invitrogen
T2 sequence (P33981 1-857): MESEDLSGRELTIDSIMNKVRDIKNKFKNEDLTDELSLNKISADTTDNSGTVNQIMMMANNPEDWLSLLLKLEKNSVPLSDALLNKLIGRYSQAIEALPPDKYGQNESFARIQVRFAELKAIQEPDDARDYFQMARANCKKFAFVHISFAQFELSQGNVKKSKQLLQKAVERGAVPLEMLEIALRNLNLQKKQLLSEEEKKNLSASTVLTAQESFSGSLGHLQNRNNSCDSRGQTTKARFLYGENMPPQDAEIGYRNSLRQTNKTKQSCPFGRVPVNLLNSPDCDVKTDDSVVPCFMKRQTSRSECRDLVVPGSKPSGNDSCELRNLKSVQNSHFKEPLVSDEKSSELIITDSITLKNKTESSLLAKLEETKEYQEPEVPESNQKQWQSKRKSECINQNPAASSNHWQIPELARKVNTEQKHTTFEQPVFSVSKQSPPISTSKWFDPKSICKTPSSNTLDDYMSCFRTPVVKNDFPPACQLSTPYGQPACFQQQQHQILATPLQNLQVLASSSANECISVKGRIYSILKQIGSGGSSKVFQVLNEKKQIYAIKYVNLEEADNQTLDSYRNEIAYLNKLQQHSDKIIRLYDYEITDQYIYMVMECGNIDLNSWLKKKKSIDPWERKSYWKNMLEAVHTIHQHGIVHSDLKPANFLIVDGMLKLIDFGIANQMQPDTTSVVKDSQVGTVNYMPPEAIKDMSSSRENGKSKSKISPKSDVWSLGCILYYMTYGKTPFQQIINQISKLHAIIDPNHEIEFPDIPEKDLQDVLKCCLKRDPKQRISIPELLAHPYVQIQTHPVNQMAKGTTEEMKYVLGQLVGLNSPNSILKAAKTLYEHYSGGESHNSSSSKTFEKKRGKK

[1] = tested on: PA-1 ovarian cancer cells; experiment: Cell growth inhibition, Sulforhodamine B assay, PA-1; format: cell-based; settings: 120 h, 5 days culture, SRB assay, read-out: Cell Line GI50 Range PA-1
HT29 colon cancer cells = experiment: Cell growth inhibition, Sulforhodamine B assay, HT29; format: cell-based; settings: Homo sapiens, HT-29, 120 h, 5 days culture, SRB assay, read-out: Cell Line GI50 Range HT29
[2] = tested on: MDA-MB-468 breast cancer cells; experiment: Cell growth inhibition, Sulforhodamine B assay, MDA-MB-468; format: cell-based; settings: Homo sapiens, 120 h, 5 days culture, SRB assay, read-out: Cell Line GI50 Range MDA-MB-468
[3] = tested on: HCT116 colon cancer cells; experiment: Cell growth inhibition, Sulforhodamine B assay, HCT116; format: cell-based; settings: Homo sapiens, HCT-116, 120 h, 5 days culture, SRB assay, read-out: Cell Line GI50 Range HCT116
[4] = tested on: MDA-MB-231 breast cancer cells; experiment: Cell growth inhibition, Sulforhodamine B assay, MDA-MB-231; format: cell-based; settings: Homo sapiens, 120 h, 5 days culture, SRB assay, read-out: Cell Line GI50 Range MDA-MB-231
[5] = tested on: OVCAR-3 ovarian cancer cells; experiment: Cell growth inhibition, Sulforhodamine B assay, OVCAR-3; format: cell-based; settings: Homo sapiens, 120 h, 5 days culture, SRB assay, read-out: Cell Line GI50 Range OVCAR-3
Aurora B = target: T3, Aurora B (Homo sapiens, UniProt Q96GD4); experiment: Aurora B inhibition assay (Z-Lyte); format: biochemical; settings: 28 nM Aurora B, 128 μM ATP; read-out: IC50 Ranges Aurora B
T3 construct: purchased Invitrogen PV3970
T3 sequence (Q96GD4 whole entry): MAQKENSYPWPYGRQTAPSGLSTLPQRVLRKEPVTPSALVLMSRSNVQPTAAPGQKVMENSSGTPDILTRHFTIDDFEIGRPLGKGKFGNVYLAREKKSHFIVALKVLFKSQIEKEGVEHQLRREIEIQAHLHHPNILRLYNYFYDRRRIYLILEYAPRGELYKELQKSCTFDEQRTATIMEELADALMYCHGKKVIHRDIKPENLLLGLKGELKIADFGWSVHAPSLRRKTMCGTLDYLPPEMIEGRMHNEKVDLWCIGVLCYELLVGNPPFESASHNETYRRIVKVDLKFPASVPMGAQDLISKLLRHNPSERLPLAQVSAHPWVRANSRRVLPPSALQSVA
Description: Aurora B inhibition was determined using the Z-Lyte assay kit from Invitrogen. The assay was performed using the recommended manufacturer's instructions with 128 μM ATP and 28 nM Aurora B (Invitrogen cat #PV3970). The % inhibition values were determined according to the manufacturer's directions and IC50 values were obtained using a non-linear 4 point logistic curve fit (XLfit4, IDBS)

Structure (SMILES) | IC50 (human PLK4) [µM] | IC50 (human TTK) [µM] | GI50 [1] [µM] | GI50 (HT29 colon cancer cells) [µM] | GI50 [2] [µM] | GI50 [3] [µM] | GI50 [4] [µM] | GI50 [5] [µM] | IC50 (Aurora B) [µM]
CO[C@@H](C(=O)Nc1ccc2[nH]nc(-c3ccc(O[C@@H]4CCN(C)C[C@@H]4F)cc3)c2c1)c1ccccc1 (relative stereo) [Example A135, (R)—N-(3-(4-(((3S,4R)-3-fluoro-1-methylpiperidin-4-yl)oxy)phenyl)-1H-indazol-5-yl)-2-methoxy-2-phenylacetamide] | ≤ 5 | ≤ 5 | ≤ 5 | ≤ 5 | ≤ 5 | ≤ 5 | ≤ 5 | ≤ 5 | 
O=C(Nc1ccc2[nH]nc(-c3ccc(OC4CCN(CCF)CC4)cc3)c2c1)C(c1ccsc1)N1CCCC1 (stereo not shown) [Example A102, N-(3-(4-((1-(2-fluoroethyl)piperidin-4-yl)oxy)phenyl)-1H-indazol-5-yl)-2-(pyrrolidin-1-yl)-2-(thiophen-3-yl)acetamide] | ≤ 5 | ≤ 5 | ≤ 5 | ≤ 5 | ≤ 5 | ≤ 5 |  | 5 to 20 | ≤ 5
CCc1cccc(CC)c1NC(=O)Nc1ccc2[nH]nc(-c3ccc4c(c3)CN(C)CCO4)c2c1 [Example A114, 1-(2,6-diethylphenyl)-3-(3-(4-methyl-2,3,4,5-tetrahydrobenzo[f][1,4]oxazepin-7-yl)-1H-indazol-5-yl)urea] | ≤ 5 | ≤ 5 | ≤ 5 | ≤ 5 | ≤ 5 | ≤ 5 | ≤ 5 | 5 to 20 | 
CC(C)(C)OC(=O)N1CCC(Oc2ccc(-c3n[nH]c4ccc(NC(=O)C(c5ccsc5)N5CCCC5)cc34)cc2)CC1 (stereo not shown) [Example A115, tert-butyl 4-(4-(5-(2-(pyrrolidin-1-yl)-2-(thiophen-3-yl)acetamido)-1H-indazol-3-yl)phenoxy)piperidine-1-carboxylate] | ≤ 5 | ≤ 5 | ≤ 5 | ≤ 5 | ≤ 5 | ≤ 5 | ≤ 5 | ≤ 5 | 
CN1CCC(Oc2ccc(-c3n[nH]c4ccc(C(=O)NC(c5ccsc5)C5CCC5)cc34)cc2)CC1 (stereo not shown) [Example A121] | ≤ 5 | ≤ 5 | ≤ 5 | ≤ 5 | ≤ 5 | ≤ 5 |  | ≤ 5 | ≤ 5
COCCN1CCC(Oc2ccc(-c3n[nH]c4ccc(C(=O)N[C@H](C)c5ccccc5F)cc34)cc2)CC1 [Example A129, (R)—N-(1-(2-fluorophenyl)ethyl)-3-(4-((1-(2-methoxyethyl)piperidin-4-yl)oxy)phenyl)-1H-indazole-5-carboxamide] | ≤ 5 | ≤ 5 | ≤ 5 | ≤ 5 | ≤ 5 | ≤ 5 | ≤ 5 | 5 to 20 | 
O=C(NC(c1ccccc1)C1CC1)c1ccc2[nH]nc(-c3ccc(OCCN4CCOCC4)cc3)c2c1 (stereo not shown) [Example A140, N-(cyclopropyl(phenyl)methyl)-3-(4-(2-morpholinoethoxy)phenyl)-1H-indazole-5-carboxamide] | ≤ 5 | ≤ 5 | ≤ 5 | ≤ 5 | ≤ 5 | ≤ 5 | ≤ 5 | ≤ 5 | 
Cc1ccccc1C(NC(=O)c1ccc2[nH]nc(-c3ccc(N4CC(O)C4)cc3)c2c1)C1CC1 (stereo not shown) [Example A141, N-(Cyclopropyl(o-tolyl)methyl)-3-(4-(3-hydroxyazetidin-1-yl)phenyl)-1H-indazole-5-carboxamide] | ≤ 5 | ≤ 5 | ≤ 5 | ≤ 5 | ≤ 5 | ≤ 5 | ≤ 5 | ≤ 5 | 
CC[C@@H](NC(=O)c1ccc2[nH]nc(-c3ccc(OC4CCN(C5COC5)CC4)cc3)c2c1)c1ccccc1Cl [Example A192, (R)—N-(1-(2-chlorophenyl)propyl)-3-(4-((1-(oxetan-3-yl)piperidin-4-yl)oxy)phenyl)-1H-indazole-5-carboxamide] | ≤ 5 | ≤ 5 | ≤ 5 |  | ≤ 5 | ≤ 5 |  | ≤ 5 | ≤ 5
COc1cc(-c2n[nH]c3ccc(C(=O)NC(c4ccccc4)C4CC4)cc23)ccc1OC1CCN(C2COC2)CC1 (stereo not shown) [Example A194, N-(cyclopropyl(phenyl)methyl)-3-(3-methoxy-4-((1-(oxetan-3-yl)piperidin-4-yl)oxy)phenyl)-1H-indazole-5-carboxamide] | ≤ 5 | ≤ 5 | ≤ 5 |  | ≤ 5 | ≤ 5 | ≤ 5 | ≤ 5 | ≤ 5
CN1CCC(Oc2ccc(-c3n[nH]c4ccc(C(=O)NC(c5ccccn5)C5CC5)cc34)cc2Cl)CC1 (stereo not shown) [Example A198, 3-(3-chloro-4-((1-methylpiperidin-4-yl)oxy)phenyl)-N-(cyclopropyl(pyridin-2-yl)methyl)-1H-indazole-5-carboxamide] | ≤ 5 | ≤ 5 | ≤ 5 |  | ≤ 5 | ≤ 5 | ≤ 5 | ≤ 5 | ≤ 5
CN1CCC(Oc2ccc(-c3n[nH]c4ccc(C(=O)NC(c5ccccc5Cl)C5CCCC5)cc34)cc2)CC1 (stereo not shown) [Example A199, N-((2-chlorophenyl)(cyclopentyl)methyl)-3-(4-((1-methylpiperidin-4-yl)oxy)phenyl)-1H-indazole-5-carboxamide] | ≤ 5 | ≤ 5 | ≤ 5 |  | ≤ 5 | ≤ 5 | ≤ 5 | ≤ 5 | ≤ 5
CN1CCC(Oc2ccc(-c3n[nH]c4ccc(C(=O)N[C@H](CCO)c5ccccc5)cc34)cc2Cl)CC1 [Example A202, (R)-3-(3-chloro-4-((1-methylpiperidin-4-yl)oxy)phenyl)-N-(3-hydroxy-1-phenylpropyl)-1H-indazole-5-carboxamide] | ≤ 5 | ≤ 5 | ≤ 5 |  | ≤ 5 | ≤ 5 | ≤ 5 | ≤ 5 | ≤ 5
